In patent US20100256153A1, “METHODS FOR PREVENTING OR REDUCING RISK OF MORTALITY” (priority 2009, published 2010):

Experiments:
[1] = tested on: Phase 2b/3 pooled population; assay: Pooled analysis of cardiovascular events and death in the Phase 2b/3 clinical studies; type: in vivo, human; details: for CEC-CV death/MI/stroke: CEC-adjudicated; for All MI / All stroke: fatal and/or non-fatal
Experimental: The mortality and adverse CV event data shown in the Tables and Figures herein were analyzed from the Phase 2b and Phase 3 studies (Phase 2b/3).
Mortality incidences caused by stroke, heart attack, heart failure, or blood vessel problems not associated with the heart or brain, were defined as CV death. Death by any means, including CV death, was defined as All-cause Mortality or All-cause death.
Acute CV events, as defined herein, includes all cardiovascular disorders associated with Phase 2b/3 subjects that were diagnosed by a medical physician during the studies as acute and clinically significant including MACE events and also procedures (for example, cardiac bypass surgery) and severe ischemic event such as unstable angina. Primary MACE means non-fatal myocardial infarction (MI), non-fatal stroke, and CV death. Secondary MACE accounts for All-cause deaths (death by any means) in addition to non-fatal MI, non-fatal stroke, and CV death.
First, two physicians at the Clinical Event Center (CEC) of the Duke Clinical Research Institute (Durham, N.C.) served as consultants to the sponsor and performed a retrospective treatment-blinded independent adjudication of all identified potential CV events. […] Adjudication was based on definitions typical for such review and prespecified by the reviewers.

subjects = assay: Phase 1-3 clinical development, tolerability; type: in vivo, human
[2] = tested on: subjects of pooled studies; assay: Ischemic serious adverse events (heart or brain related) in pooled studies, Fischer Exact Test analysis (FIG. 12); type: in vivo, human; details: FIG. 12, per 100 comparator
non-diabetic rats = assay: Two year survival of non-diabetic rats (FIGS. 7-8); type: in vivo, rat; details: 25 mg/kg/day, two years
From the text: (§1) In these studies, approximately sixty animals of each gender were exposed to saxagliptin or two cohorts of placebo over two years, the approximate lifetime of a rodent. […] The differences in survival time between male and female rodents are not currently explained. A possible explanation for the rat results is that the dose taken by male rats, 45 times the human equivalent dose, was closer to the human experience than the same dose taken by female rats, 112 times the human equivalent dose, and therefore the male experience may be more relevant.

non-diabetic mice = assay: Two year survival of non-diabetic mice (FIGS. 9-10); type: in vivo, mouse; details: 50 mg/kg/day, two years
From the text: as §1

[3] = tested on: subjects administered sitagliptin or metformin; assay: Health insurance data analysis of heart attack, sitagliptin relative to metformin (FIG. 13); type: in vivo, human; details: propensity adjusted, 27,424 sitagliptin vs 80,462 metformin subjects
[4] = All Saxa (2.5, 5, 10, 20, 40, 100 mg/d), N = 3356
[5] = CEC adjudication, all saxagliptin

SMILES: N#C[C@@H]1C[C@@H]2C[C@@H]2N1C(=O)[C@@H](N)C12CC3CC(CC(O)(C3)C1)C2 [saxagliptin, (1S,3S,5S)-2-[(2S)-2-amino-2-(3-hydroxyadamantan-1-yl)acetyl]-2-azabicyclo[3.1.0]hexane-3-carbonitrile]
- subjects having a Primary MACE (CV death/MI/stroke) ([1]; ALL SAXA group): 0.7%
- Inv-CV death/MI/stroke [1, 4]: 23 (0.7) n (%)
- CEC-CV death/MI/stroke [1, 4]: 22 (0.7) n (%)
- All death ([1]; All Saxa, N = 3356): 10 (0.3) n (%)
- Other CV death ([1]; All Saxa, N = 3356): 4 (0.1) n (%)
- All MI ([1]; All Saxa, N = 3356): 8 (0.2) n (%)
- All stroke ([1]; All Saxa, N = 3356): 11 (0.3) n (%)
- All Stroke (fatal and non-fatal), proportion of subjects with events [1, 5]: 0.3%
- Other CV death, proportion of subjects with events [1, 5]: 0.1%
- all MI, proportion of subjects with events [1, 5]: 0.2%
- Acute CV Events, Incidence rate ± SE ([1]; Phase 2/3 Pooled Population): 10.7 ± 1.8 events/1000 patient-years
- Primary MACE, Incidence rate ± SE ([1]; Phase 2/3 Pooled Population): 6.2 ± 1.3 events/1000 patient-years
- Secondary MACE, Incidence rate ± SE ([1]; Phase 2/3 Pooled Population): 7.0 ± 1.4 events/1000 patient-years
- All death ([1]; Saxa 2.5 mg, N = 937): 3 (0.3) n (%)
- Inv-CV death/MI/stroke ([1]; Saxa 2.5 mg, N = 937): 6 (0.6) n (%)
- Other CV death ([1]; Saxa 2.5 mg, N = 937): 0 n (%)
- CEC-CV death/MI/stroke ([1]; Saxa 2.5 mg, N = 937): 6 (0.6) n (%)
- All MI ([1]; Saxa 2.5 mg, N = 937): 2 (0.2) n (%)
- All stroke ([1]; Saxa 2.5 mg, N = 937): 4 (0.4) n (%)
- All death ([1]; Saxa 5 mg, N = 1269): 3 (0.2) n (%)
- Inv-CV death/MI/stroke ([1]; Saxa 5 mg, N = 1269): 6 (0.5) n (%)
- Other CV death ([1]; Saxa 5 mg, N = 1269): 0 n (%)
- CEC-CV death/MI/stroke ([1]; Saxa 5 mg, N = 1269): 7 (0.6) n (%)
- All MI ([1]; Saxa 5 mg, N = 1269): 4 (0.3) n (%)
- All stroke ([1]; Saxa 5 mg, N = 1269): 4 (0.3) n (%)
- All death ([1]; Saxa 10 mg, N = 1000): 4 (0.4) n (%)
- Inv-CV death/MI/stroke ([1]; Saxa 10 mg, N = 1000): 11 (1.1) n (%)
- Other CV death ([1]; Saxa 10 mg, N = 1000): 4 (0.4) n (%)
- CEC-CV death/MI/stroke ([1]; Saxa 10 mg, N = 1000): 9 (0.9) n (%)
- All MI ([1]; Saxa 10 mg, N = 1000): 2 (0.2) n (%)
- All stroke ([1]; Saxa 10 mg, N = 1000): 3 (0.3) n (%)
- Proportion of subjects with SAE CHF events ([1]; all saxagliptin): 0.2%
- overall frequency of CV deaths ([1]; all subjects treated with saxagliptin (7/3356)): 0.2%
- all cause mortality (death by any means), frequency ([1]; all subjects treated with saxagliptin (10/3356)): 0.3%
- incidence of MACE events in higher risk subgroups versus control ([1]; at least one or two CV risk factors in addition to T2DM, history of hypertension or hypercholesterolemia, males, FIGS. 3, 4): lowered incidence MACE events
- MACE events incidence rate ([1]; subjects with a history of CV disease, FIG. 3): 9.2 MACE events per 1000 patient-years
- fatal CHF events ([1]; two fatal events in total, both on comparator): none
- adverse CV effects related to blood pressure or heart rate (subjects; Phase 1-3 studies overall): did not lead to adverse CV effects
- tolerability (subjects; maximum oral daily doses 400 mg up to 2 weeks, 100 mg up to 6 weeks, 40 and 20 mg up to 12 weeks, 2.5, 5, 10 mg up to 2 years): well tolerated
- ischemic SAEs (heart attack or stroke-like events causing death, hospitalization, or near hospitalization), subjects on drug when 100 subjects on comparator had events [2]: 57 subjects
- survival versus placebo (non-diabetic rats; female rats, FIG. 8): intermediate between the two placebo cohorts
- survival versus placebo (non-diabetic rats; male rats, FIG. 7): reduced risk of mortality or longer survival times
- survival versus placebo (non-diabetic mice; female mice, FIG. 9): reduced risk of mortality
- survival versus placebo (non-diabetic mice; male mice, FIG. 10): intermediate between the two placebo cohorts

SMILES: N#C[C@@H]1CCCN1C(=O)CNC12CC3CC(CC(O)(C3)C1)C2 [vildagliptin, reference compound]
- ischemic SAEs (heart attack or stroke-like events causing death, hospitalization, or near hospitalization), subjects on drug when 100 subjects on comparator had events [2]: 70 subjects

SMILES: N[C@@H](CC(=O)N1CCn2c(nnc2C(F)(F)F)C1)Cc1cc(F)c(F)cc1F [sitagliptin]
- heart attack, subjects on sitagliptin in the time 100 subjects have a heart attack on metformin [3]: 65 subjects
